Assay results as given in patent US3950537A, “Gastrointestinally active thioureas” (Rohm and Haas Company, priority 1975, dated 1976).
Counter-ions that a name gives are not always drawn.

Columns and labels:
gastric secretion = assay: Antisecretory test (pyloric ligation, gastric secretion volume); format: in vivo, Wistar rats (adult female); details: for ED50: Rattus norvegicus, orally 1 hour prior to pyloric ligation or subcutaneously immediately after, 5 h after ligation, maximum dosage 10 mg./kg., read-out: Antisecretory Activity ED50 (50% reduction in the volume of gastric secretion); for found to be active in the antisecretory test: rats, pyloric ligation, in words
Method: Adult female Wistar rats weighing 140 to 160 g. were starved for 24 hours prior to the test. The animals were anaesthetized with ether, shaved on the abdomen, and a small midline incision made. The pylorus was exposed, ligated, and the wound subsequently closed with wound clips. The animals were treated with the test compound administered either orally 1 hour prior to pyloric ligation or subcutaneously immediately after ligation. The test compound was administered in distilled water or 0.5% methyl cellulose. Six animals were used for each treatment. Five hours following the ligation, the animals were sacrificed, the stomachs were carefully removed and opened, and the gastric contents measured for volume and titratable acidity. […] A maximum dosage of 10 mg./kg. was used for the test compounds.

[1] = tested on: charcoal entering the cecum; assay: Antimotility test (charcoal entering the cecum); format: in vivo, mice (adult male); details: for ED50: Mus musculus, oral, 1 h before charcoal, examined 3.5 h after charcoal, maximum dosage 30 mg./kg., read-out: Antimotility ED50 (prevented the charcoal from entering the cecum in 50% of the treated mice); for found to be active in the antimotility tests: mice, in words
Method: Adult male mice weighing in the range of 20 to 30 g. were starved for 24 hours prior to the test. The animals were then treated orally with the test compound dissolved in water or suspended in methyl cellulose. One hour later, each animal was dosed with 0.2 ml. of a charcoal suspension consisting of 5% activated charcoal suspended in 0.25% methyl cellulose. The animals were sacrificed 3.5 hours after the charcoal administration and their cecums examined for the presence or absence of charcoal. […] A maximum dosage of 30 mg./kg. was used.

diarrhea = assay: Antidiarrheal test (castor oil diarrhea); format: in vivo, Swiss-Webster mice (adult male); details: Mus musculus; oral, 1 h before castor oil; diarrhea noted 3 h later; maximum 30 mg./kg.; read-out: Antidiarrheal ED50 (inhibited diarrhea in 50% of the treated mice)
Method: In this test adult male Swiss-Webster mice weighing 30 to 40 g. were employed, using 6 mice per treatment. The test compound was administered orally in a dosage series with a maximum of 30 mg./kg. either in water if soluble or else in 0.5% methyl cellulose. One hour after treatment, each animal received a single dose of 0.3 ml. of castor oil, administered orally. The animals were then individually caged and provided food and water.

SMILES	ED50 (gastric secretion)	ED50 [1]	ED50 (diarrhea)	found to be active in the antisecretory test (gastric secretion)	found to be active in the antimotility tests [1]
Cc1ccccc1NC(=S)N(C)C [AA]	> 10 mg/kg	< 30 mg/kg	< 30 mg/kg	–	–
Cc1ccc(NC(=S)N(C)C)c(C)c1 [AB]	> 10 mg/kg	4.4 mg/kg	3.8 mg/kg	–	–
Cc1cccc(C)c1NC(=S)N(C)C [AC]	> 10 mg/kg	< 30 mg/kg	–	–	–
Cc1cc(Cl)ccc1NC(=S)N(C)C [AD]	> 10 mg/kg	< 30 mg/kg	–	–	–
CNC(=S)Nc1ccc(C)cc1C [AE]	> 10 mg/kg	> 30 mg/kg	–	–	–
CCNC(=S)Nc1ccc(C)cc1C [AF]	> 10 mg/kg	> 30 mg/kg	–	–	–
Cc1ccc(NC(=S)NCCN)c(C)c1 [AG]	> 10 mg/kg	13 mg/kg	10 mg/kg	–	–
Cc1ccc(NC(=S)NCCN(C)C)c(C)c1 [AH]	> 10 mg/kg	20 mg/kg	> 30 mg/kg	–	–
Cc1cccc(C)c1NC(=S)NCCN [AI]	> 10 mg/kg	15.5 mg/kg	11.5 mg/kg	–	–
Cc1cc(Cl)ccc1NC(=S)NCCN [AJ]	> 10 mg/kg	30 mg/kg	–	–	–
Cc1ccc(NC(=S)NCCS)c(C)c1 [AK]	> 10 mg/kg	15 to 30 mg/kg	> 30 mg/kg	–	–
Cc1ccc(NC(=S)N(C)CCO)c(C)c1 [AL]	> 10 mg/kg	> 30 mg/kg	> 30 mg/kg	–	–
Cc1ccc(NC(=S)N(CCO)CCO)c(C)c1 [AM]	> 10 mg/kg	> 30 mg/kg	> 30 mg/kg	–	–
Cc1ccc(NC(=S)NC(C)CO)c(C)c1 (stereo not shown) [AN]	> 10 mg/kg	> 30 mg/kg	–	–	–
Cc1ccc(NC(=S)NC(C)(C)CO)c(C)c1 [AO]	> 10 mg/kg	< 30 mg/kg	> 30 mg/kg	–	–
Cc1ccc(NC(=S)NCC(C)O)c(C)c1 (stereo not shown) [AP]	> 10 mg/kg	> 30 mg/kg	> 30 mg/kg	–	–
Cc1ccc(NC(=S)NCCCO)c(C)c1 [AQ]	> 10 mg/kg	> 30 mg/kg	> 30 mg/kg	–	–
Cc1cccc(C)c1NC(=O)NCCO [AR]	> 10 mg/kg	> 30 mg/kg	> 30 mg/kg	–	–
Cc1ccccc1NC(=S)NCCO [A]	3 to 10 mg/kg	11.5 mg/kg	7.8 mg/kg	–	–
CCc1ccccc1NC(=S)NCCO [B]	> 10 mg/kg	> 15 mg/kg	15 to 30 mg/kg	–	–
CC(C)c1ccccc1NC(=S)NCCO [C]	> 10 mg/kg	> 30 mg/kg	> 30 mg/kg	–	–
Cc1ccc(NC(=S)NCCO)cc1 [D]	–	> 30 mg/kg	–	–	–

SMILES	ED50 (gastric secretion)	ED50 [1]	ED50 (diarrhea)	found to be active in the antisecretory test (gastric secretion)	found to be active in the antimotility tests [1]
CN1CCCN=C1COC(=O)C(O)(c1ccccc1)C1CCCCC1 (stereo not shown) [Daricon, oxyphencyclimine hydrochloride, reference compound]	2.4 mg/kg	3.4 mg/kg	50 mg/kg	–	–
Cc1cccc(NC(=S)NCCO)c1C [E]	3 mg/kg	5 mg/kg	12.5 mg/kg	–	–
Cc1ccc(NC(=S)NCCO)c(C)c1 [F]	0.5 to 1 mg/kg	8.6 mg/kg	10.5 mg/kg	–	–
Cc1ccc(C)c(NC(=S)NCCO)c1 [G]	> 10 mg/kg	> 30 mg/kg	> 30 mg/kg	–	–
Cc1cccc(C)c1NC(=S)NCCO [H]	0.5 to 1 mg/kg	2.4 mg/kg	4.3 mg/kg	–	–
Cc1ccc(NC(=S)NCCO)cc1C [I]	> 10 mg/kg	> 30 mg/kg	> 30 mg/kg	–	–
Cc1cc(C)cc(NC(=S)NCCO)c1 [J]	> 10 mg/kg	> 30 mg/kg	–	–	–
Cc1c(Cl)cccc1NC(=S)NCCO [K]	> 10 mg/kg	7.2 mg/kg	< 30 mg/kg	–	–
Cc1cc(Cl)ccc1NC(=S)NCCO [L]	1 to 3 mg/kg	15 to 30 mg/kg	< 30 mg/kg	–	–
CCOC(=O)C1(c2ccccc2)CCN(CCC(C#N)(c2ccccc2)c2ccccc2)CC1 [Lomotil, diphenoxylate hydrochloride, reference compound]	–	2 mg/kg	9.9 mg/kg	–	–
Cc1ccc(Cl)cc1NC(=S)NCCO [M]	> 10 mg/kg	7.4 mg/kg	15 to 30 mg/kg	–	–
Cc1cccc(Cl)c1NC(=S)NCCO [N]	> 10 mg/kg	< 30 mg/kg	–	–	–
Cc1cc(Br)ccc1NC(=S)NCCO [O]	< 10 mg/kg	18.5 mg/kg	> 30 mg/kg	–	–
OCCNC(=S)Nc1ccc(Cl)cc1Cl [P]	> 10 mg/kg	> 30 mg/kg	> 30 mg/kg	–	–
Cc1ccccc1NC(=S)NCCO [Preparation A, 1-(2-methylphenyl)-3-(2-hydroxyethyl)thiourea]	–	–	–	active	active
Cc1ccccc1NC(=S)N(C)C [Preparation AA]	–	–	–	–	active
Cc1ccc(NC(=S)N(C)C)c(C)c1 [Preparation AB]	–	–	–	–	active
Cc1cccc(C)c1NC(=S)N(C)C [Preparation AC]	–	–	–	–	active
Cc1cc(Cl)ccc1NC(=S)N(C)C [Preparation AD, 1-(2-methyl-4-chlorophenyl)-3,3-dimethylthiourea]	–	–	–	–	active
Cc1ccc(NC(=S)NCCN)c(C)c1 [Preparation AG]	–	–	–	–	active
Cc1ccc(NC(=S)NCCN(C)C)c(C)c1 [Preparation AH, 1-(2,4-dimethylphenyl)-3-(2-dimethylaminoethyl)-thiourea]	–	–	–	–	active
Cc1cccc(C)c1NC(=S)NCCN [Preparation AI]	–	–	–	–	active

SMILES	ED50 (gastric secretion)	ED50 [1]	ED50 (diarrhea)	found to be active in the antisecretory test (gastric secretion)	found to be active in the antimotility tests [1]
Cc1cc(Cl)ccc1NC(=S)NCCN [Preparation AJ]	–	–	–	–	active
CCc1ccccc1NC(=S)NCCO [Preparation B]	–	–	–	–	active
Cc1cccc(NC(=S)NCCO)c1C [Preparation E]	–	–	–	active	active
Cc1ccc(NC(=S)NCCO)c(C)c1 [Preparation F, 1-(2,4-dimethylphenyl)-3-(2-hydroxyethyl)-thiourea]	–	–	–	active	active
Cc1cccc(C)c1NC(=S)NCCO [Preparation H, 1-(2,6-dimethylphenyl)-3-(2-hydroxyethyl)thiourea]	–	–	–	active	active
Cc1c(Cl)cccc1NC(=S)NCCO [Preparation K]	–	–	–	–	active
Cc1cc(Cl)ccc1NC(=S)NCCO [Preparation L]	–	–	–	active	active
Cc1ccc(Cl)cc1NC(=S)NCCO [Preparation M]	–	–	–	–	active
Cc1cccc(Cl)c1NC(=S)NCCO [Preparation N]	–	–	–	–	active
Cc1cc(Br)ccc1NC(=S)NCCO [Preparation O]	–	–	–	–	active
COc1ccc(NC(=S)NCCO)c(C)c1 [Preparation R]	–	–	–	–	active
Cc1cc(C)c(NC(=S)NCCO)c(C)c1 [Preparation S]	–	–	–	active	active
OCCNC(=S)Nc1cccc2ccccc12 [Preparation T]	–	–	–	–	active
CC(C)[N+](C)(CCOC(=O)C1c2ccccc2Oc2ccccc21)C(C)C [Pro-Banthine, propantheline bromide, reference compound]	8 mg/kg	14.7 mg/kg	> 80 mg/kg	–	–
Cc1cc(O)ccc1NC(=S)NCCO [Q]	> 10 mg/kg	> 30 mg/kg	> 30 mg/kg	–	–
COc1ccc(NC(=S)NCCO)c(C)c1 [R]	> 10 mg/kg	12.5 mg/kg	30 mg/kg	–	–
Cc1cc(C)c(NC(=S)NCCO)c(C)c1 [S]	< 10 mg/kg	6.4 mg/kg	< 30 mg/kg	–	–
OCCNC(=S)Nc1cccc2ccccc12 [T]	–	7 mg/kg	15 to 30 mg/kg	–	–
OCCNC(=S)Nc1ccc2ccccc2c1 [U]	> 10 mg/kg	> 30 mg/kg	> 30 mg/kg	–	–
CN1[C@@H]2CC[C@H]1C[C@@H](OC(=O)C(CO)c1ccccc1)C2 (stereo partly shown) [atropine, reference compound]	–	9.8 mg/kg	> 40 mg/kg	–	–
COc1ccc2c3c1O[C@H]1[C@@H](O)C=C[C@H]4[C@@H](C2)N(C)CC[C@@]341 [codeine phosphate, reference compound]	–	29 mg/kg	35 mg/kg	–	–
